We go through 17 compounds from paper PMC10974018, “The Development and Characterization of Novel Ionic Liquids Based on Mono- and Dicarboxylates with Meglumine for Drug Solubilizers and Skin Permeation Enhancers” (Pharmaceutics, 2024).

For orientation: Log P means the decadic logarithm of the partition coefficient of the neutral form, usually between octanol and water. Broadly, the pKa is the negative logarithm of the acid dissociation constant.

For series [1] the following is noted: cited from earlier work.
The conditions of series [2]: cited from earlier work. This is another data set of the same source.
The nature of series [3]: Solubility capability of drug-in-IL (organic acid/MGM ionic liquids), confirmed by PXRD. Type of series: physicochemical. The settings on record: for upper limit of drug dissolution in IL: PXRD.
Assay in series [4]: as above
It is filed as physicochemical. The settings on record: for upper limit of drug dissolution in IL: in GA-MGM 1:1, PXRD. As to the method: […] Next, 1, 10, 20… w/w% of each drug and water and ethanol as the solvent was added to the MGM and organic acid solution, and then the preparation was sonicated to be completely dissolved. The resulting solution was evaporated using a thermostat at 65 °C and then vacuum-dried at 40 °C for 24 h.
The solubilization power of ILs is attributed to a range of interactions, such as ionic, van der Waals, π–π, and hydrogen bonding. […] To determine the solubility capability of the ILs, drug-in-IL complexes were prepared. Subsequently, these complexes were analyzed via PXRD to confirm dissolution. PXRD is a technique used to validate the crystalline structure of a drug or excipients in a preparation. The absence of a drug’s crystal form in PXRD indicates the complete solubilization of the drug in the IL.

For the compound `CC1COc2c(N3CCN(C)CC3)c(F)cc3c(=O)c(C(=O)O)cn1c23` (centres unmarked) [Ofloxacin (OFLX), Ofloxacin], in series [1], the pKa1 is on record as 5.97 and the pKa2 is 9.28. In addition, the “Log P” value in series [2] is −0.48.
For `COc1ccccc1OCCNCC(O)COc1cccc2[nH]c3ccccc3c12` (centres unmarked) [Carvedilol (CVD), Carvedilol], in series [2], the “Log P” value was 4.19.
In the case of `CCOc1ccccc1C(N)=O` [Ethenzamide (ETZ), Ethenzamide], the pKa in series [1] was 13.7. In series [2], the “Log P” value is 1.02.
As to `C[C@@H]1O[C@@H](OC[C@H]2O[C@@H](Oc3c(-c4ccc(O)c(O)c4)oc4cc(O)cc(O)c4c3=O)[C@H](O)[C@@H](O)[C@@H]2O)[C@H](O)[C@H](O)[C@H]1O` [Rutin], in series [1], the pKa is reported as 6.43. In addition, the “upper limit of drug dissolution in IL” value in series [3] (in AA-MGM 1:2) was “greater than 10%”; in series [4], no less than 20%. Moreover, the “Log P” value in series [2] was −1.33.
Curcumin [Curcumin (CCM)]: the pKa in series [1] was 8.09.
`Oc1ncnc2[nH]ncc12` [Allopurinol (ALP), Allopurinol]: the pKa in series [1] is recorded as 9.34. In series [2], the “Log P” value is reported as −1.80.
On to `CC(C)N(CCC(C(N)=O)(c1ccccc1)c1ccccn1)C(C)C` (centres unmarked) [Disopyramide (DPA), Disopyramide], for which the “solubility in ILs” value in series [4] (all ILs (TA/MGM, AA/MGM, GA/MGM, CPA/MGM)) came to 100%.
As for `COC1=C(OC)C(=O)C(C/C=C(\C)CC/C=C(\C)CC/C=C(\C)CC/C=C(\C)CC/C=C(\C)CC/C=C(\C)CC/C=C(\C)CC/C=C(\C)CC/C=C(\C)CCC=C(C)C)=C(C)C1=O` [Coenzyme Q10 (CoQ10), Coenzyme Q10], the pKa in series [1] is 10.9. For the same compound, the “upper limit of drug dissolution in IL” value in series [3] (in AA-MGM 1:2) is recorded as “greater than 10%”. Further, the “Log P” value in series [2] was 9.94.
Consider `CC(C(=O)O)c1ccc(-c2ccccc2)c(F)c1` (centres unmarked) [Flurbiprofen (FRP), Flurbiprofen], for which the pKa in series [1] is 3.78. The entries for the “upper limit of drug dissolution in IL” value in series [3] (in AA-MGM 1:2), in series [3] (in TA-MGM 1:2) and in series [4] were “greater than 10%”, 10% and no less than 20%, respectively.
For `O=C(O)CCCCCCCC(=O)O` [Azelaic acid (AA), Azelaic acid], the pKa in series [1] is on record as 4.55. The “Log P” value in series [2] is 1.57.
On to `CC(C)=CCC/C(C)=C/C(=O)O` [Geranic acid (GA), Geranic acid], for which the pKa in series [1] is on record as 5.26. Moreover, in series [2], the “Log P” value is listed as 3.07.
Turning to Minoxidil [Minoxidil (MXD)], the pKa in series [1] is on record as 4.61. Also, in series [2], the “Log P” value was 1.24.
Regarding `C[C@H](CS)C(=O)N1CCC[C@H]1C(=O)O` [Captopril (CPP), Captopril], in series [1], the pKa is on record as 3.64. Moreover, the “upper limit of drug dissolution in IL” value is listed as “greater than 10%” in series [3] (in AA-MGM 1:2), 80% in series [3] (in TA-MGM 1:2) and no less than 20% in series [4].
`CNC[C@H](O)[C@@H](O)[C@H](O)[C@H](O)CO` [Meglumine (MGM), Meglumine]: the pKa in series [1] is listed as 9.52.
Regarding `O=C(O)C(O)C(O)C(=O)O` (centres unmarked) [Tartaric acid (TA), Tartaric acid], in series [2], the “Log P” value is listed as −1.8.
`COc1cc(/C=C/C(=O)O)ccc1O` [Ferulic acid (FA), Ferulic acid]: in series [1], the pKa is 4.58.
As for `O=[N+]([O-])O[C@@H]1CO[C@H]2[C@@H]1OC[C@@H]2O` [Isosorbide mononitrate (ISMN), Isosorbide mononitrate], the “dissolution of drug in IL by PXRD (drug-derived crystal peaks)” value in series [3] (5% and 10% drug in TA-MGM 1:2) is reported as “cannot be completely dissolved”. Also, the “upper limit of drug dissolution in IL” value in series [3] (in AA-MGM 1:2) is “greater than 10%”; in series [4], no less than 20%. The “Log P” value in series [2] is reported as −0.15.
